Data reported in PMC8665364, “Phosphoinositide regulates dynamic movement of the S4 voltage sensor in the second repeat in two-pore channel 3” (The Journal of Biological Chemistry, 2021).
Positions count from the first letter of the chain named.

Legend:
[1] = target: T1, XtTPC3 (TPC3 from Xenopus tropicalis) (Xenopus tropicalis, UniProt A0A6I8S6D1, D511C); test: two-electrode voltage clamp, Cys-accessibility (activation rate); type: cell-based; conditions: covalent at introduced Cys511; 0.5 mM MTSES in ND-96, pH 7.4, room temperature; +135 mV pulses; PI(3,4)P2 present (after long depolarization); Xenopus oocytes
T1 construct: gene LOC100495031; full-length cDNA in pGEMHE, Xenopus laevis oocytes (cRNA); pCXN2 in HEK293T for gating charges; homodimer
T1 sequence (A0A6I8S6D1 1-779 D511C): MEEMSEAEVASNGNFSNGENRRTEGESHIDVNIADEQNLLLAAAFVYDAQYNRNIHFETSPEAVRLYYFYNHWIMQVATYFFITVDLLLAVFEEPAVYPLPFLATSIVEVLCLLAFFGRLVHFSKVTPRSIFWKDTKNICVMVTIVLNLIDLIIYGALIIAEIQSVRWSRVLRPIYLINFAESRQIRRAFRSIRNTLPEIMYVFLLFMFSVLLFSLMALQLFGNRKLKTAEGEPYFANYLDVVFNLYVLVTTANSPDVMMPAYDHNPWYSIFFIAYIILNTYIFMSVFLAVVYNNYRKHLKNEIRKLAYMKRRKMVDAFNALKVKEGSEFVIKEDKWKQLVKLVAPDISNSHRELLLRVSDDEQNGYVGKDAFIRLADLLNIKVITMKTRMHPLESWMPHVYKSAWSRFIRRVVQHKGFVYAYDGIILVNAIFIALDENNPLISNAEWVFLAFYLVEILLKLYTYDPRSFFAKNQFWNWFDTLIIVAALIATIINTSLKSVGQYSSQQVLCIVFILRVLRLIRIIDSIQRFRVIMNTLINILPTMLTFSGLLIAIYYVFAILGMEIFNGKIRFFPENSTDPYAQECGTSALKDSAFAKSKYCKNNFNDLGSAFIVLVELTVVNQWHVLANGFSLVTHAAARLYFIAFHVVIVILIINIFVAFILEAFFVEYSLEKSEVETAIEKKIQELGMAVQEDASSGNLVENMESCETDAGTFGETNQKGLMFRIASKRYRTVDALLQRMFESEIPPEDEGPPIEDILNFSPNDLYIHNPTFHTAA

[2] = target: T2, XtTPC3 (TPC3 from Xenopus tropicalis) (Xenopus tropicalis, UniProt A0A6I8S6D1, R187Q/D511C); test: as above; type: cell-based; conditions: covalent at introduced Cys511; 0.5 mM MTSES in ND-96, pH 7.4, room temperature; +135 mV pulses; PI(3,4)P2 present (after long depolarization); Xenopus oocytes
T2 construct: gene LOC100495031; full-length cDNA in pGEMHE, Xenopus laevis oocytes (cRNA); pCXN2 in HEK293T for gating charges; homodimer
T2 sequence (A0A6I8S6D1 1-779 R187Q/D511C): T1 sequence (A0A6I8S6D1 1-779 D511C) with R187Q

Structure (SMILES): CS(=O)(=O)SCCS(=O)(=O)O [MTSES]
- MTSES-modification rate [1]: 0.043 ± 0.014 s⁻¹
- MTSES-modification rate [2]: 0.011 ± 0.005 s⁻¹
